Experiments:
Brainiac = molecular target: T1, Brainiac (Drosophila melanogaster, UniProt Q24157); assay: Brainiac activity towards glycosphingolipids; assay type: biochemical; conditions: 10 μg purified glycolipid, 300 μM UDP-14C-N-acetylglucosamine, FIG. 8
T1 construct: The full coding region of Brainiac was prepared by PCR using genomic DNA; made in house; host or cells: High Five insect cells (baculovirus vector pVL1393); microsomal fractions
T1 sequence (Q24157 1-325): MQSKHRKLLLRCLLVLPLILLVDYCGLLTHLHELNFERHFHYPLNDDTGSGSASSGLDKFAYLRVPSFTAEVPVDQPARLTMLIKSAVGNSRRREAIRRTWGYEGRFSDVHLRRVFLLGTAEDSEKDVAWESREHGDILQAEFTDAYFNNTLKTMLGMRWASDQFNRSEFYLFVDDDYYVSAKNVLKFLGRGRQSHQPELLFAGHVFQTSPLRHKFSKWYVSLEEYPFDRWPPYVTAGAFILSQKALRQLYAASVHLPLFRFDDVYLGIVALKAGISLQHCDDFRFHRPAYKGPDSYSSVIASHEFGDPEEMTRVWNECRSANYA
Protocol: FIG. 8: Brainiac activity towards glycosphingolipids purified from insect cells. Microsomal fractions (1.5 mg) of insect cells transfected with pVL-brainiac and pVL-fringe were used as the enzyme source. Reactions contained 10 μg of purified glycolipids and 300 μM of UDP-^14C-N-acetylglucosamine (8200 cpm/nmol). Products were purified on C18-silica cartridges, spotted on HPTLC-plates, developed in 60:35:8 (chloroform:methanol:water) and exposed for autoradiography.
Brainiac-full was cloned into baculovirus vector pVL1393 (Pharmingen) and expressed in High Five cells. Microsomal fractions were prepared as described above for Fringe but with 0.5% N-octylglucoside as Triton X-100 and related detergents destroyed the activity. Initial analysis of activity was done with five monosaccharides and four donor sugar nucleotides as described in FIG. 5 for Fringe. Assays with the acceptors listed in Table 1 were performed as described for Fringe except no additional detergent was added. Reactions with glycolipid substrates were performed in the presence of 0.5% N-octylglucoside in 50 ul reaction volume containing 10 μg glycolipid.
Glycolipids were obtained from Sigma or purified from High Five insect cells grown in serum free medium. […]

human β3GnT2 = molecular target: T2, human β3GnT2 (Homo sapiens, UniProt Q9NY97); assay: human β3GnT2 activity with glycolipid acceptors; assay type: biochemical; conditions: not shown
T2 sequence (Q9NY97 1-397): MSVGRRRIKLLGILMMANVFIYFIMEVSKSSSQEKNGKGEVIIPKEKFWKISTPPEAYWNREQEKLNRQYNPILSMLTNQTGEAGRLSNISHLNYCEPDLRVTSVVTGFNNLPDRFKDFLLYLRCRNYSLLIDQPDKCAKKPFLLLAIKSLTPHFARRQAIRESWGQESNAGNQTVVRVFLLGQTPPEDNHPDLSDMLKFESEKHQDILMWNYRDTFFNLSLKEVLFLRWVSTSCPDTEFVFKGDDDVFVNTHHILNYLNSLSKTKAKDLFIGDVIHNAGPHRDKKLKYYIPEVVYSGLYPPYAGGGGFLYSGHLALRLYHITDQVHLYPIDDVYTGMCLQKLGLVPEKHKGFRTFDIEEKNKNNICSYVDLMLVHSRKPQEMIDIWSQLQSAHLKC
Excerpt: It is interesting to note that Brainiac also functions with Lac-Cer, a glycolipid which has never been described from insects. Brainiac is the ancestral gene of a very large homologous β3glycosyltransferase gene family in mammalian cells, and the members of this family with closest sequence similarity to Brainiac is represented by a family of β3GlcNAc-transferases with similar specificity for Lac-Cer (Shiraishi et al., 2001, J. Biol. Chem., 276: 3498-3507.). One of these designated human β3GnT2 was analysed in detail and shown to use Lac-Cer but not Mac-Cer (not shown).

[1] = molecular target: T3, Brainiac β1-3-N-acetylglucosaminyltransferase (Drosophila melanogaster, UniProt Q24157); assay: Substrate specificities of Brainiac β1-3-N-acetylglucosaminyltransferase (acceptor panel, microsomal preparations); assay type: biochemical; conditions: panel of mono- and disaccharides with aglycons and oligosaccharides
T3 construct: The full coding region of Brainiac was prepared by PCR using genomic DNA; made in house; host or cells: High Five insect cells (baculovirus vector pVL1393); microsomal fractions
T3 sequence (Q24157 1-325): T1 sequence (Q24157 1-325)
Protocol: Fringe-Myc and Fringe-NNN-myc were cloned into baculovirus vector pVL1393 (Pharmingen) and expressed in High Five™ cells. Microsomal fractions were prepared by hypotonic lysis ultracentrifugation and solubilised 1:2 (vol/vol) in 20 mM Cacodylate pH 6.5, 1% Triton-CF54, 5 MM MnCl2 containing Leupeptin and Aprotinin as described previously (Amado et al., 1998). For glycosyltransferase assays, 5 μl of this suspension were added to a total of 50 μl reaction mixture containing 25 mM Cacodylate pH 6.5, 0.25% Triton-CF54, 5 mM MnCl2, 500 mM free sugar, 100 μM UDP-^14C-sugar (1280-2000 cpm/nmol). Reactions were incubated at 37° C. for 45-60 minutes, followed by Dowex-1 anion exchange chromatography and scintillation counting of 50% of the flow-through.
Brainiac-full was cloned into baculovirus vector pVL1393 (Pharmingen) and expressed in High Five cells. […] Initial analysis of activity was done with five monosaccharides and four donor sugar nucleotides as described in FIG. 5 for Fringe. Assays with the acceptors listed in Table 1 were performed as described for Fringe except no additional detergent was added. Reactions with glycolipid substrates were performed in the presence of 0.5% N-octylglucoside in 50 ul reaction volume containing 10 μg glycolipid.
In the latter case the acceptor sugar was not determined.

[2] = molecular target: T3, Brainiac β1-3-N-acetylglucosaminyltransferase; assay: as above; assay type: biochemical; conditions: microsomes of pVL-Brainiac infected High Five cells, background of irrelevant construct subtracted, donor UDP-GlcNAc
Notch = molecular target: T4, Notch (Drosophila melanogaster, UniProt P07207); assay: Delta-AP binding to Notch transfected S2 cells; assay type: cell-based; conditions: co-expressed with Notch in S2 cells
T4 construct: expressed in transfected cells; host or cells: Drosophila Schneider S2 cells, transient transfection, pRmHa3
T4 sequence (P07207 53-2703): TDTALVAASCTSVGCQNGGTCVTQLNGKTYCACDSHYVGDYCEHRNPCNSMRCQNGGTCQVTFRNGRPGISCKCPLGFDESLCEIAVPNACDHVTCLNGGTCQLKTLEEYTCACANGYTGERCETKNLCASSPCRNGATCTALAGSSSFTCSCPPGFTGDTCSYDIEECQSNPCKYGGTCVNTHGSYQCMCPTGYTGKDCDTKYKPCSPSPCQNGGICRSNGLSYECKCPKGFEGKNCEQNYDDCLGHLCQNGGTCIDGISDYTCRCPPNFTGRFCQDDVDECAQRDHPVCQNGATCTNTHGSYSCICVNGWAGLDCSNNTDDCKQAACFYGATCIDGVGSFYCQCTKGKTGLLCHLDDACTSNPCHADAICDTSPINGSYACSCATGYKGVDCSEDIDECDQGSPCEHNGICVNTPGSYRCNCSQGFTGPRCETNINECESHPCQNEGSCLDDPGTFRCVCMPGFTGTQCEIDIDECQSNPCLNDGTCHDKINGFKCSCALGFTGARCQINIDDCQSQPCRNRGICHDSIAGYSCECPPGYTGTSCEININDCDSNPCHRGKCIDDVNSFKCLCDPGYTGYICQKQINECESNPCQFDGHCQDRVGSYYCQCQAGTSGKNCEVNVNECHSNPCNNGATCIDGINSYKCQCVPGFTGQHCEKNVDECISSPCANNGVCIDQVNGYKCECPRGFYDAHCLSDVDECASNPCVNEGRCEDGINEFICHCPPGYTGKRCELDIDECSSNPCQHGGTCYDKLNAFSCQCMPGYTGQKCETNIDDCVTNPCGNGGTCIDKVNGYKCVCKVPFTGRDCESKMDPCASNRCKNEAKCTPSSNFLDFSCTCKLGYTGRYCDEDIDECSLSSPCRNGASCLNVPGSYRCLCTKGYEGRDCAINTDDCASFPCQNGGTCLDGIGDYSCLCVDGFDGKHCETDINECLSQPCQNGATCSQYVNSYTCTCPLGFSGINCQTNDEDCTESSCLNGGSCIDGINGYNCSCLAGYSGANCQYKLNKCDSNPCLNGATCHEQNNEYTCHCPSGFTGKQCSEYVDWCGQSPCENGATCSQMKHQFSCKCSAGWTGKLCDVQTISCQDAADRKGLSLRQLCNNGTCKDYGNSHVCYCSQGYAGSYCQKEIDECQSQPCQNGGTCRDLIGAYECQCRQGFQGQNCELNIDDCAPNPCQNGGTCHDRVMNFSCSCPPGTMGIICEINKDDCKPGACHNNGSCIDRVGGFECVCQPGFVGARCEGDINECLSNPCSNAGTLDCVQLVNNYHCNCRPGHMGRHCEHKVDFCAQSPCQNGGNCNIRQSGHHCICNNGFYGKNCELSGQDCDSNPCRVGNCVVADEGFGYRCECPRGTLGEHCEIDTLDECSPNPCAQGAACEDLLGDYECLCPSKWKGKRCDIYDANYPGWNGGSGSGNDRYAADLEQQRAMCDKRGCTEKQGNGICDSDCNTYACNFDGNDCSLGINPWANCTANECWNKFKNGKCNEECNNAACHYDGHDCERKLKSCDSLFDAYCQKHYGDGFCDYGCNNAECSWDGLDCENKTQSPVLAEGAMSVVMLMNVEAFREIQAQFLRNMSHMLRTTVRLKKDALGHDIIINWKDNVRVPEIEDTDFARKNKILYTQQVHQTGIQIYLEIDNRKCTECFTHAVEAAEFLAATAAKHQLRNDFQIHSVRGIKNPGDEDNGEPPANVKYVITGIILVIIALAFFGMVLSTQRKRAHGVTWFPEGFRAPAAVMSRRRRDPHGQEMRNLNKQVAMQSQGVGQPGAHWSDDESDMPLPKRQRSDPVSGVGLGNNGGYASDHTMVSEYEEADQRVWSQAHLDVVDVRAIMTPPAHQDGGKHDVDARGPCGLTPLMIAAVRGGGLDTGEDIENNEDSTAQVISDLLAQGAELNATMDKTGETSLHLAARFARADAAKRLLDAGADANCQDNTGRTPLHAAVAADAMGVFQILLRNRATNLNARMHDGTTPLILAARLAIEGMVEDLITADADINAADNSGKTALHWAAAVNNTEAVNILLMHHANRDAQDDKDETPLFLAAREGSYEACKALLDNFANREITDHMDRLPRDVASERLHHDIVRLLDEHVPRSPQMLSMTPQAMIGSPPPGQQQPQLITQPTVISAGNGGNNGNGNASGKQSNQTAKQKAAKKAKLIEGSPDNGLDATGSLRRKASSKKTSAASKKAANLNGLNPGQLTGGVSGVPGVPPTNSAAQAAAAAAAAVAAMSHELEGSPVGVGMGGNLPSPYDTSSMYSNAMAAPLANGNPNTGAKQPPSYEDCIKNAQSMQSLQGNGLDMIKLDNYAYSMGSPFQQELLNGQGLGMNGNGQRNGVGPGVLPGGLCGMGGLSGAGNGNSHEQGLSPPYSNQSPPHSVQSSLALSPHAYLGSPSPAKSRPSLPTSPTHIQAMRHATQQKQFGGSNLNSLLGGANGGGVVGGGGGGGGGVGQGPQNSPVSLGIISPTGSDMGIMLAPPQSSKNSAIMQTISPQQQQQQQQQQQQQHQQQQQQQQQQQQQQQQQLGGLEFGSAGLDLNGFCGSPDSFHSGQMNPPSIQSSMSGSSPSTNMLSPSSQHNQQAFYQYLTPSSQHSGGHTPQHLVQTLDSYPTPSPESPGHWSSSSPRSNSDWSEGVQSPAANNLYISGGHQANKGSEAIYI
Protocol: Cell culture and Binding assays: cDNAs for expression in Schneider S2 cells were cloned into pRmHa3. Cells were transiently transfected by the CaPO4 method using 6-8 μg of DNA per well in 6 well plates. Expression was induced by addition of 0.7 mM CuSO4 for 2 days. Conditioned medium was collected from Notch-AP and Delta-AP transfected cells 2 days after induction. AP activity was adjusted to normalise activity levels of Notch-AP or Delta-AP expressed with or without Fringe. Binding was performed as described in Cheng and Flanagan, 1994. In brief, AP-containing supernatants were supplemented with 0.1% NaN3, and incubated 90 min at room temperature. Cells were washed 5 times in HBSS containing 0.05% BSA and 0.1% azide, and lysed in 10 mM Tris pH 8, 1% Triton-X100. Endogenous AP was inactivated by heat treatment for 10 min 60° C. and the lysates clarified by centrifugation. AP activity was measured in 1M Diethanolamine, 1 mM MgCl2, 5 mM para-nitrophenyl phosphate. Bound AP activity was quantified in 96 well plates using a microplate reader and Micromanager software (BioRad). An additional replicate of each transfection was prepared for immunoblot analysis. Lysates were prepared separately for Immunoblot analysis to allow inclusion of protease inhibitors which are not used in the binding assay. To measure interaction of Delta-AP with transiently transfected S2 cells, bound AP activity was quantified in an enzymatic colour reaction. Cells transfected with empty vector were used as a control. […] AP activity is shown in mOD units/minute in cell extracts (replicate experiments are shown in this figure). In this experiment Fringe stimulated binding by over 50 fold. […] However, the assay allows measurement of Fringe-dependent stimulation of Delta-AP binding.

[3] = test system: Notch activation in the wing imaginal disc; assay: Ectopic expression under patched GAL4 control in wing imaginal disc, Wingless expression; assay type: in vivo, Drosophila; conditions: expressed under patched GAL4 control
Excerpt: (e), (f), (g) Wing imaginal discs labelled to visualise Wingless protein (left panel) and the myc epitope tag (right panel). (e) patched^GAL4/+wing disc. Wingless is expressed in a continuous stripe along the DV boundary. (f) patched^GAL4/UAS-Fringe-GalNT3-myc. Golgi-tethered Fringe-GalNT3-myc expression in the patched^GAL4 stripe is shown in the right-hand panel. The endogenous Wingless stripe is interrupted where the Golgi-tethered Fringe stripe crosses the DV boundary (left panel). At the anterior-posterior compartment boundary the Golgi-tethered Fringe stripe abuts the endogenous Wingless stripe and induces ectopic expression of Wingless in the ventral compartment. This pattern is identical to that reported for ectopic expression of wild-type (secreted) Fringe shown in panel (g) for the Golgi-tethered Fringe D: dorsal compartment. V ventral compartment. Posterior is to the right. […] These effects precisely match those caused by expression of wild-type Fringe (not shown; see Panin et al., 1997; Kim et al., 1995). […] Cells were transfected to express Notch, wild-type Fringe-wt-myc, or mutant Fringe-NNN-myc as indicated. Cells transfected with empty vector were used as a control. Fringe-NNN-Myc has no activity in the binding assay, despite being expressed at higher levels than Fringe-wt-Myc.

In the case of Galβ1-4Glcβ1-Cer, the “Glycolipid substrate for Brainiac, in words” value (Brainiac) is reported as “served as a substrate” and the “Glycolipid used by human β3GnT2, in words” value (human β3GnT2) is reported as “use Lac-Cer”.

For `OC[C@H]1OC(O)[C@H](O)[C@@H](O)[C@H]1O` (stereo partly drawn) [D-Gal], the “Acceptor for Brainiac, in words (detailed analysis)” value [1] was “not found to be acceptors”, the “Brainiac activity with substrate” value ([2]; substrate 2 mM) was 0.00 nmol/h/mg and the “Brainiac activity with substrate” value ([2]; substrate 20 mM) was 0.00 nmol/h/mg.

With Manβ1-4Glcβ1-Cer the “Glycolipid substrate for Brainiac, in words” value (Brainiac) was “efficient substrate” and the “Glycolipid used by human β3GnT2, in words” value (human β3GnT2) was “not Mac-Cer”.

B1: Fringe-NNN: Fringe-myc with amino acids D236, 237 and 238 converted to asparagine residues (protein, UniProt Q24342 1-412, looked up, variant D236N D237N D238N)
Fringe glycosyltransferase: MMSLTVLSPPQRFKRILQAMMLAVAVVYMTLLLYQSAYGYPGIQVPHSQVDALASEAVTTHRDQLLQDYVQSSTPTQPGAGAPAASPTTVIIRKDIRSFNFSDIEVSERPTATLLTELARRSRNGELLRDLSQRAVTATPQPPVTELDDIFISVKTTKNYHDTRLALIIKTWFQLARDQTWFFTDTDDHYYQEKTKGHLINTKCSQGHFRKALCCKMSAELDVFLESGKKWFCHFNNNNYVNVPRLVKLLDEYSPSVDWYLGKPSISSPLEIHLDSKNTTTNKKITFWFATGGAGFCLSRALTLKMLPIAGGGKFISIGDKIRFPDDVTMGFIIEHLLKVPLTVVDNFHSHLEPMEFIRQDTFQDQVSFSYAHMKNQWNVIKVDGFDMKTDPKRFYSLHCQLFPYFSFCPPR
modifications: C-terminal myc tag
notes: Fringe-myc with amino acids D236, 237 and 238 converted to asparagine residues
In the case of B1, the “Effect on Delta-AP binding, in words” value (Notch) is reported as “did not increase Delta-AP binding above background levels”, the “Effect on Delta-AP binding, in words” value (Notch; listed as Fringe-NNN-Myc) is reported as “no activity” and the “Effect on Wingless expression / Notch activation in wing disc, in words” value [3] is reported as “did not cause Notch activation in the ventral compartment”.

From patent US20030153056A1, “Glycosyltransferase proteins” (priority 2000, published 2003)
